Reference: ChEMBL document CHEMBL3886852, “Triazolo compounds as PDE10 inhibitors” (2016)
pIC50: −log10 of the molar value.

Target: cAMP and cAMP-inhibited cGMP 3',5'-cyclic phosphodiesterase 10A (Homo sapiens, UniProt Q9Y233)
Assay: Scintillation Proximity Assay: The human PDE10A full length assay was performed in 96-well micro titer plates. The reaction mixture of 50 μl contained 20 mM HEPES pH=7.5/10 mM MgCl2/0.05 mg/ml BSA (Sigma cat. # A-7906), 50 nM cGMP (Sigma, cat. # G6129) and 50 nM [3H]-cGMP (GE Healthcare, cat. # TRK392 S.A. 13.2 Ci/mmol), 3.75 ng/well PDE10A enzyme (Enzo Life Science, Lausen, Switzerland cat # SE-534) with or without a specific test compound. A range of concentrations of the potential inhibitor was used to generate data for calculating the concentration of inhibitor resulting in 50% of the effect (e.g. IC50, the concentration of the competitor inhibiting PDE10A activity by 50%). Non-specific activity was tested without the enzyme. The reaction was initiated by the addition of the substrate solution (cGMP and [3H]-cGMP) and allowed to progress for 20 minutes at room temperature. The reaction was terminated by adding 25 μl of YSi-SPA scintillation beads (GE Healthcare, cat. # RPNQ0150) in 18 mM zinc sulphate solution (stop reagent). After 1 h under shaking, the plate was centrifuged one minute at 170 g to allow beads to settle. Afterwards, radioactive counts were measured on a Perkin Elmer Top-Count Scintillation plate reader.

Chain of cAMP and cAMP-inhibited cGMP 3',5'-cyclic phosphodiesterase 10A (Q9Y233 whole entry): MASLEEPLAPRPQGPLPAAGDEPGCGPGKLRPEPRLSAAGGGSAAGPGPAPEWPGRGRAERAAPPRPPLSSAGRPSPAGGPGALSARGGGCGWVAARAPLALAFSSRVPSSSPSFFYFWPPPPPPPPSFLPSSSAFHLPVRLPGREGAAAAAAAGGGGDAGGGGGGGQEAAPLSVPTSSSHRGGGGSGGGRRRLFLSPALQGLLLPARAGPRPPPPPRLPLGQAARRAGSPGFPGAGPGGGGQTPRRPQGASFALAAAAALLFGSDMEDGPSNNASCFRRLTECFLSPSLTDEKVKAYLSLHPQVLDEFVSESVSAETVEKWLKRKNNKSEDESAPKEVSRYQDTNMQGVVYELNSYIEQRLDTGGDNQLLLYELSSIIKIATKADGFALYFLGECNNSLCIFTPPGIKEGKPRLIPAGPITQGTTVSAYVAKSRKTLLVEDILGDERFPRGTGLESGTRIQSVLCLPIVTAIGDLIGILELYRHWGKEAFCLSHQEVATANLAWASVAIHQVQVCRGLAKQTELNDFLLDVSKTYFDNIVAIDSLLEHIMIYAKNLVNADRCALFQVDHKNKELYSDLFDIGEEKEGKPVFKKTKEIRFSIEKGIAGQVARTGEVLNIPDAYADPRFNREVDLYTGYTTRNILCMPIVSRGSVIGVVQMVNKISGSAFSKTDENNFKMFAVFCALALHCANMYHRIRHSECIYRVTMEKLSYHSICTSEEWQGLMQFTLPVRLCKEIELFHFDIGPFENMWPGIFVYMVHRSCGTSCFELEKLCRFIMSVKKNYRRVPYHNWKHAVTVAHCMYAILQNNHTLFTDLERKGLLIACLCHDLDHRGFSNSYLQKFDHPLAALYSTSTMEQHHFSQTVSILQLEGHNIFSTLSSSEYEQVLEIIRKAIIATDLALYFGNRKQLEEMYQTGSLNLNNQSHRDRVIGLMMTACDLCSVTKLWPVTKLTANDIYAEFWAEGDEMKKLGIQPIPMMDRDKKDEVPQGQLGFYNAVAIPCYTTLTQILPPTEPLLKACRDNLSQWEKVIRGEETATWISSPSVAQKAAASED

| pIC50 | Compound |
| --- | --- |
| 8.46 | Cc1c(C#N)ccc2nc(CCc3nc(N4CCCC4)nn3C)nn12 |
| 8.57 | Cc1ncc(C)n2nc(CCc3nc(N4CCCC4)n(C)n3)nc12 |
| 6.48 | Cc1ncc(C)n2nc(CCc3nc(N(C)C)nn3C)nc12 |
| 7.44 | Cn1nc(N2CCCC2)nc1CCc1nc2c(Br)cc(C(F)(F)F)cn2n1 |
| 8.35 | Cc1ccn2nc(CCc3nc(N4CCCC4)nn3C)nc2c1C |
